Laboratory results taken from patent US20220409586A1, “TREATMENT AND PREVENTION OF NEUROINFLAMMATION OR AN INFLAMMATORY BRAIN DISORDER” (Inflazome Limited, priority 2019, published 2022).

Assay: Study A: blood-brain barrier penetration, MetaQuant microdialysis of left and right striatum after oral administration
Assay type: in vivo, mouse (C57Bl/6)
Details: for average peak levels in left and right striatal dialysate: freely-moving adult male C57Bl/6 mice, corrected for dilution, not for recovery; for time of average peak levels in striatal dialysate after compound administration: mice, left and right striatum
Procedure: The present study was designed to determine the free concentration of the compound of formula (I) in the left and right striatum of freely-moving adult male mice after oral administration.
Adult male C57Bl/6 mice (22-28 g; Envigo, the Netherlands) were used for the experiments. Following arrival, animals were housed in groups of 5 in polypropylene cages (40×50×20 cm) with wire mesh top in a temperature (22±2° C.) and humidity (55±15%) controlled environment on a 12 hour light cycle (07.00-19.00). Following surgery, animals were housed individually (cages 30×30×40 cm). Standard diet (SDS Diets, RM1 PL) and domestic quality mains water were available ad libitum.
Mice were anesthetized using isoflurane (2% and 500 mL/min O2). Before surgery, Finadyne (1 mg/kg, s.c.) was administered for analgesia during surgery and the post-surgical recovery period. A mixture of bupivacaine and epinephrine was used for local analgesia of the incision site.
The animals were placed in a stereotaxic frame (Kopf instruments, USA). MetaQuant microdialysis probes with a 3 mm exposed polyacrylonitrile membrane (MQ-PAN 3/3) were implanted bilaterally into the left and right striatum (coordinates for the tip of the probe: AP=+0.8 mm (to bregma), ML=+/−1.7 mm (to midline), DV=−4.0 mm (to dura) with an angle of 0° and the incisor bar set at 0.0 mm. All coordinates were based on “The mouse brain in stereotaxic coordinates” by Paxinos and Franklin (2008). The probes were attached to the skull with a stainless-steel screw and dental cement.
The monosodium salt of the compound of formula (I) was formulated in sterilized tap water at concentrations (with respect to the non-salt form) of 0.2 and 4 mg/mL for oral dosing at 5 mL/kg; 1 mg/kg and 20 mg/kg, respectively.
The MetaQuant microdialysis probes were connected with flexible PEEK tubing (Western Analytical Products Inc. USA; PK005-020) to a microperfusion pump (Harvard) and perfused with a slow flow of artificial CSF (perfusate), containing 147 mM NaCl, 3.0 mM KCl, 1.2 mM CaCl2, and 1.2 mM MgCl2, at a flow rate of 0.12 μL/min and a carrier flow of UP+0.02 M FA+0.04% ascorbic acid at 0.8 μL/min. After a minimum of two hours of prestabilisation, microdialysis samples were collected in 60 minute intervals. Following collection of two baseline samples, the compound of formula (I) (1 or 20 mg/kg in sterilised tap water) was administered orally at t=0 minutes. […]
Microdialysate samples from MetaQuant probes contained a nominal volume of 55.2 μL dialysate. Levels of the compound of formula (I) in MetaQuant microdialysate samples were quantified by LC-MS/MS. […]
Suitable in-run calibration curves were fitted using weighted (1/x) regression and the sample concentrations were determined using these calibration curves. […]

SMILES: CC(C)n1ccc(S(=O)(=O)NC(=O)Nc2c3c(cc4c2CCC4)CCC3)n1 [compound of formula (I)]
- average peak levels in left and right striatal dialysate (1 mg/kg oral, at 5 hours after administration): 12 to 13 nM
- time of average peak levels in striatal dialysate after compound administration (1 mg/kg oral): 5 h
- average peak levels in left and right striatal dialysate (20 mg/kg oral, at 6 hours after administration): 201 to 243 nM
- time of average peak levels in striatal dialysate after compound administration (20 mg/kg oral): 6 h
